Assay [1] deals with T1, E. coli RodA-PBP2 fusion (PBP2 TP domain) (Escherichia coli, UniProt P0AD65).
T1 construct: gene mrdA; with Peptidoglycan glycosyltransferase MrdB
T1 sequence (P0AD65 1-633): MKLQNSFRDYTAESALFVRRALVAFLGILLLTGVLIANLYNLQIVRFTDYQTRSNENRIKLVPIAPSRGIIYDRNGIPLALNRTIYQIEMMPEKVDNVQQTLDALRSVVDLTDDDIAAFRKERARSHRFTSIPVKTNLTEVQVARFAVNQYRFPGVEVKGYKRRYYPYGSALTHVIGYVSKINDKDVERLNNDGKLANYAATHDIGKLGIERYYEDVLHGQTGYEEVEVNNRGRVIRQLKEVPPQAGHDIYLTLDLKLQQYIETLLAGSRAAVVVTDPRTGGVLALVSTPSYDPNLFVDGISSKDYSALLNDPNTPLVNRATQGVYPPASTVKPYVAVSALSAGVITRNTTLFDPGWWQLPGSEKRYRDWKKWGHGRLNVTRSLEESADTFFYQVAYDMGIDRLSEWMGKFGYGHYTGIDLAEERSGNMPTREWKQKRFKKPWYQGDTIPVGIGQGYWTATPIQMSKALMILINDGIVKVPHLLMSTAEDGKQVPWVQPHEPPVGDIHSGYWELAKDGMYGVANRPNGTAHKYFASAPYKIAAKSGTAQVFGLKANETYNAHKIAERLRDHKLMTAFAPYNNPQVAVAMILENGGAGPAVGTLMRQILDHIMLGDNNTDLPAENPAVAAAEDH
T1 sequence (P0ABG7 1-370 partner): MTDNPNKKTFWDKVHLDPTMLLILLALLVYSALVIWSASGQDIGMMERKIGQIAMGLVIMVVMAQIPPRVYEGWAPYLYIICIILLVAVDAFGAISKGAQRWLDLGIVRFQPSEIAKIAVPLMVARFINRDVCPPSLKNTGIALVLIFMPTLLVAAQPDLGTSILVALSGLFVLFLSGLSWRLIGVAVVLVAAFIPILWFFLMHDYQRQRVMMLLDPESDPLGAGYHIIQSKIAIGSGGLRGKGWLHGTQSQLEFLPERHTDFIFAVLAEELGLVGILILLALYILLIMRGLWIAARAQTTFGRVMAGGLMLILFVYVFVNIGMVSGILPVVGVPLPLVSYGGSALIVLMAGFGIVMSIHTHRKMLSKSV
The assay can be described thus: fluorescent bocillin labelling, SDS-PAGE. To be noted: covalent; TP active site of PBP2; labelled compound; 15 min. The assay is classed as binding.

The target in another assay is T2, E. coli PBP2 (Escherichia coli str. K-12 substr. …, UniProt P0AD65 1-633).
T2 construct: K-12 substr; MG1655, UniProt P0AD65; residues 10-343, 401-430, 457-540 and 569-612 built in the map; PBP2 Gln99 is residue 476 in the fusion; the poly-histidine tag of the fusion is written on m1; also called transpeptidase (TP); source: E. coli BL21(DE3) pLysS, purified (Ni-NTA, SEC), reconstituted in POPG / MSP1E3D1 nanodiscs
T2 sequence (looked up): T1 sequence (P0AD65 1-633)
The assay can be described thus: cryo-EM structure; single-particle cryo-EM of the RodA-PBP2 fusion (one chain, TSGSGSGS linker) in POPG / MSP1E3D1 nanodiscs; 20 mM HEPES pH 7, 150 mM NaCl, 1 mM TCEP; 0.66 mg/ml (5.9 uM). To be noted: both partners purified.

With `Cc1cc(C)n2c1C=C1C=CC(CCC(=O)Nc3ccc(OCC(=O)N[C@@H]4C(=O)N5[C@@H]4SC(C)(C)[C@@H]5C(=O)O)cc3)=[N+]1[B-]2(F)F` [bocillin], in assay [1], the “fluorescent bocillin labelling, SDS-PAGE” value is “The TP domain binds (and is covalently modified by) a fluorescent penicillin mimic bocillin”.

B1: E. coli RodA (enzyme, UniProt P0ABG7 1-370, looked up)
chain: T1 sequence (P0ABG7 1-370 partner)
notes: RodA, Escherichia coli str; K-12 substr; MG1655; UniProt ID printed as '0ABG7'; residues 9-93 and 109-364 built in the map; They are written as two molecules for the pair row; No TEV cleavage is described; also called SEDS glycosyltransferase (GT); RodA part of the RodA-PBP2 fusion; source: E. coli BL21(DE3) pLysS, purified (Ni-NTA, SEC), reconstituted in POPG / MSP1E3D1 nanodiscs
In the case of B1, the binding result with E. coli PBP2 was “binds”.

The record behind these values is paper PMC10449877, “Structural basis of peptidoglycan synthesis by E. coli RodA-PBP2 complex” (Nature Communications, 2023).
